Publication PMC11228983, “Rapid Protein–Ligand Affinity Determination by Photoinduced Hyperpolarized NMR” (Journal of the American Chemical Society, 2024)
Values belong to the molecule of their own block, whether it stands above or below them. Residues, ends and D or L forms follow the SMILES beside them.

Key:
[1] = target: T1, PDZ2 domain of human tyrosine phosphatase 1E (hPTP1E) (Homo sapiens, UniProt Q12923); assay: CIDNP-KD ligand titration (photo-CIDNP hyperpolarized NMR); type: binding
T1 construct: the constructs used for the PDZ2 domain of human tyrosine phosphatase 1E; polyhistidine (N); made in house; host or cells: Escherichia coli BL21 (DE3)
T1 sequence (Q12923 1368-1452 limits assumed): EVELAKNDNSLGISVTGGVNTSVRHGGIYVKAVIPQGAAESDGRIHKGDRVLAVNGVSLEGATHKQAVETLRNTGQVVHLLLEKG
Excerpt: For both STD-NMR and CIDNP-KD, there is an initial buildup of the signal at the start of the irradiation. However, the mechanisms underlying it and, thus, the kinetics of the signal buildup are different between the techniques. In STD-NMR, the saturation of L starts to build up as soon as the irradiation of the protein begins because preformed PL complexes can be immediately saturated. However, in CIDNP-KD, the preformed PL complexes are not CIDNP-active. Therefore, a free L must first be hyperpolarized and then bind to P before any signal reduction is observable. Therefore, we will use the AF(ti) corresponding to the steady state in contrast to STD-NMR, where one needs to measure the initial growth of the amplification factor to account for the ligand rebinding effects, which are significant at low ligand-to-protein ratios;[7] there is no need for an initial amplification factor in CIDNP-KD. During the photo-CIDNP process, only 0.1–1% of the ligand becomes hyperpolarized such that even at low ligand-to-protein ratios, the rebinding of L* is not a significant factor. Therefore, one needs to only assess the time to reach a steady-state amplification factor AFss, whose value is measured at a series of ligand concentrations, and then fit eq 5 to determine the proportionality factor α and the dissociation constant KD (Figure 1D,E) [drawing 5] 5 Affinities are obtained with the CIDNP-KD method as follows. The ligand of interest and the photosensitizer are prepared as titration series in the presence and absence of the target protein (Figure 1A) and measured with the Cryolight setup (Figure 1B,[23]), which allows the automatization with an autosampler. The photo-CIDNP signal builds up within 2 s (Figure 1C). It allows us to measure the irradiation time-dependent photo-CIDNP buildup of the ligand NMR signal in the presence and absence of protein in under a minute per sample (Figure S1A). These signal intensities are converted into AF(ti) with eq 4 (Figure S1B), giving an individual titration data point in the corresponding ligand titration curve (Figure S1C). The experiment is repeated at different ligand concentrations to build the titration curve fitted using eq 5, yielding the KD (Figure 1E,F). The entire measurement of all the photo-CIDNP spectra of 7 titration points (14 measurements) takes about 7 min in measurement time, plus the time to exchange the samples with the autosampler (Figure 1D).
Figure 2 presents the CIDNP-KD titration curves for each peptide with 20 μM PDZ2 in (A) and 10 μM PDZ2 in (B to D). The curves were obtained using the workflow described in the introduction for each proton of tryptophan that has sufficient photo-CIDNP signal enhancement and signal reduction upon binding (Figure S2).
Figure 2 Affinity determination of different peptides binding to the hPDZ2 domain by CIDNP-KD within a few minutes. Ligand titration of (A) WSAV, (B) WVSAV, (C) WQVSAV, and (D) WEQVSAV against the human tyrosine phosphatase PDZ2 domain (20 μM for WSAV, 10 μM for others) as described in Figures 1 and S1. The plots contain the titration curves for all protons of the tryptophan residue that undergo signal enhancement through photo-CIDNP and display sufficient quenching upon protein binding. The individual data points are measured with single-scan experiments with laser irradiation durations where t > tss: (A) 1500 ms, (B) 2000 ms, (C) 2000 ms, and (D) 2000 ms.
Expression and purification were carried out as in previously reported procedures. In short, expression in Escherichia coli cells (BL21 (DE3)) and purification via Ni-NTA chromatography as the constructs used for the PDZ2 domain of human tyrosine phosphatase 1E and human PIN1 both contained N-terminal polyhistidine tags. Both protein constructs were measured in an NMR buffer consisting of 50 mM NaCl, 20 mM KPO4, and 10% D2O at pH 6.8. For the control [^1H, ^15N]-HSQC experiments, the PDZ2 domain was expressed in ^15N-enriched minimal medium.[34],[43] […]

[2] = target: T1, PDZ2 domain of human tyrosine phosphatase 1E (hPTP1E); assay: 2D [1H,15N]-HSQC chemical shift perturbation titration; type: binding; conditions: 30 μM 15N PDZ2, pH 6.8, 298 K
Method: We compared the affinities of the peptides obtained via CIDNP-KD with the state-of-the-art 2D [^1H, ^15N]-HSQC titration experiments measured with 30 μM PDZ2 (Figure S3).
Expression and purification were carried out as in previously reported procedures. In short, expression in Escherichia coli cells (BL21 (DE3)) and purification via Ni-NTA chromatography as the constructs used for the PDZ2 domain of human tyrosine phosphatase 1E and human PIN1 both contained N-terminal polyhistidine tags. Both protein constructs were measured in an NMR buffer consisting of 50 mM NaCl, 20 mM KPO4, and 10% D2O at pH 6.8. For the control [^1H, ^15N]-HSQC experiments, the PDZ2 domain was expressed in ^15N-enriched minimal medium.[34],[43]
All photo-CIDNP and STD-NMR experiments were recorded at 298 K on a Bruker Avance III HD 600 MHz spectrometer equipped with a cryoprobe. The [^15N, ^1H] – HSQC titration experiments of the PDZ2 domain were performed also at 298 K on another Bruker Avance IIII HD 600 MHz spectrometer equipped with a cryoprobe and SampleJet.
Peak picking was performed with the maximal peak picking tool of Mnova software. Plotting, fitting, and data analysis was done in RStudio with the workflow described above. The [^15N, ^1H]-HSQC reference affinities were analyzed with CCPNMR3.1.[62] The backbone assignment was taken from BMRB 34688.
Fig. S3: 2D [15N, 1H]-HSQC titration of peptides to hPDZ2 domain. The 2D [ 15N, 1H]-
HSQC spectra of the titration series in presence of 30 µM hPDZ2 domain and the
corresponding observed chemical shift difference of A74 plotted versus the peptide
(1 picture or pasted object on this page, not shown here)

WVSAV [3] = target: T2, WVSAV; assay: CIDNP-KD NMR (Hβ)
T2 chain: WVSAV

WEQVSAV [4] = target: T3, WEQVSAV; assay: CIDNP-KD NMR (Hβ)
T3 chain: WEQVSAV

WQVSAV [5] = target: T4, WQVSAV; assay: CIDNP-KD NMR (Hβ)
T4 chain: WQVSAV

WVSAV [6] = target: T2, WVSAV; assay: CIDNP-KD NMR (H2)
WEQVSAV [7] = target: T3, WEQVSAV; assay: CIDNP-KD NMR (H2)
WQVSAV [8] = target: T4, WQVSAV; assay: CIDNP-KD NMR (H2)
WVSAV [9] = target: T2, WVSAV; assay: CIDNP-KD NMR (H4)
WQVSAV [10] = target: T4, WQVSAV; assay: CIDNP-KD NMR (H4)
WEQVSAV [11] = target: T3, WEQVSAV; assay: CIDNP-KD NMR (H6)
ENEQVSAV (RA-GEF2) [12] = target: T5, ENEQVSAV (RA-GEF2) (Homo sapiens); assay: competition CIDNP-KD NMR (H4)
T5 chain: ENEQVSAV

ENEQVSAV (RA-GEF2) [13] = target: T5, ENEQVSAV (RA-GEF2); assay: competition CIDNP-KD NMR (Hβ)
QVSAV (RA-GEF2) [14] = target: T6, QVSAV (RA-GEF2) (Homo sapiens); assay: competition CIDNP-KD NMR (Hβ)
T6 chain: QVSAV

ENEQVSAV (RA-GEF2) [15] = target: T5, ENEQVSAV (RA-GEF2); assay: [1H,15N]-HSQC titration (A74)
WVSAV [16] = target: T2, WVSAV; assay: [1H,15N]-HSQC titration (A74)
WEQVSAV [17] = target: T3, WEQVSAV; assay: [1H,15N]-HSQC titration (A74)
WQVSAV [18] = target: T4, WQVSAV; assay: [1H,15N]-HSQC titration (A74)
QVSAV (RA-GEF2) [19] = target: T6, QVSAV (RA-GEF2); assay: [1H,15N]-HSQC titration (A74)
[20] = range over Hβ/H2/H4/H6 fits, read-out: CIDNP-KD affinity, range over the observed tryptophan protons
[21] = tryptophan H2 signal, 20 μM PDZ2 for WSAV, 10 μM for others, pH 6.8, 298 K, H2 overlaps H6 for WVSAV and WQVSAV, read-out: CIDNP-KD, H2
[22] = tryptophan H4 signal, 20 μM PDZ2 for WSAV, 10 μM for others, pH 6.8, 298 K, read-out: CIDNP-KD, H4
[23] = tryptophan H6 signal, 20 μM PDZ2 for WSAV, 10 μM for others, pH 6.8, 298 K, read-out: CIDNP-KD, H6
[24] = tryptophan Hβ signal, 20 μM PDZ2 for WSAV, 10 μM for others, 25 μM fluorescein, 450 nm, 50 mM NaCl, 20 mM KPO4, 10% D2O, pH 6.8, 298 K, single-scan, steady state, fit ± error, read-out: CIDNP-KD, Hβ
[25] = 15N–1H moiety of A74, read-out: [1H,15N]-HSQC–CSP KD, NH of A74
[26] = range over residues, read-out: [1H,15N]-HSQC–CSP KD range of all residues showing chemical shift perturbation

Molecule: CC(C)[C@H](NC(=O)[C@H](C)NC(=O)[C@H](CO)NC(=O)[C@@H](N)Cc1c[nH]c2ccccc12)C(=O)O [WSAV] (H-WSAV-OH)
Kd [1, 20]: 3100 to 3300 µM | Kd [1, 21]: 3300 ± 2300 µM | Kd [1, 22]: 3100 ± 1500 µM | Kd [1, 23]: 3100 ± 3200 µM | Kd [2, 25]: 1320 ± 160 µM | Kd [2, 26]: 200 to 4000 µM

Molecule: CC(C)[C@H](NC(=O)[C@H](C)NC(=O)[C@H](CO)NC(=O)[C@@H](NC(=O)[C@@H](N)Cc1c[nH]c2ccccc12)C(C)C)C(=O)O [WVSAV] (H-WVSAV-OH)
Kd [1, 20]: 80 to 330 µM | Kd [1, 21]: 80 ± 60 µM | Kd [1, 22]: 330 ± 80 µM | Kd [1, 24]: 170 ± 40 µM | Kd [2, 25]: 108 ± 10 µM | Kd [2, 26]: 50 to 400 µM

B1: PDZ2 domain of human tyrosine phosphatase 1E (hPTP1E) PDZ2 (protein)
chain: DIFEVELAKNDNSLGISVTGGVNTSVRHGGIYVKAVIPQGAAESDGRIHKGDRVLAVNGVSLEGATHKQAVETLRNTGQVVHLLLEKGQSP
Kd (WVSAV [3]): 170 µM | Kd (WEQVSAV [4]): 82 µM | Kd (WQVSAV [5]): 27 µM | Kd (WVSAV [6]): 80 µM | Kd (WEQVSAV [7]): 63 µM | Kd (WQVSAV [8]): 74 µM | Kd (WVSAV [9]): 330 µM | Kd (WQVSAV [10]): 230 µM | Kd (WEQVSAV [11]): 55 µM | Kd (ENEQVSAV (RA-GEF2) [12]): 91 µM | Kd (ENEQVSAV (RA-GEF2) [13]): 35 µM | Kd (QVSAV (RA-GEF2) [14]): 580 µM | Kd (ENEQVSAV (RA-GEF2) [15]): 17 µM | Kd (WVSAV [16]): 108 µM | Kd (WEQVSAV [17]): 16 µM | Kd (WQVSAV [18]): 68 µM | Kd (QVSAV (RA-GEF2) [19]): 155 µM

The remaining lines, values ahead:

Kd [1, 20]: 55 to 82 µM | Kd [1, 21]: 63 ± 28 µM | Kd [1, 22]: 63 ± 16 µM | Kd [1, 23]: 55 ± 17 µM | Kd [1, 24]: 82 ± 33 µM | Kd [2, 25]: 16 ± 5 µM | Kd [2, 26]: 10 to 70 µM
Molecule: CC(C)[C@H](NC(=O)[C@H](C)NC(=O)[C@H](CO)NC(=O)[C@@H](NC(=O)[C@H](CCC(N)=O)NC(=O)[C@H](CCC(=O)O)NC(=O)[C@@H](N)Cc1c[nH]c2ccccc12)C(C)C)C(=O)O [WEQVSAV] (H-WEQVSAV-OH)

Kd [1, 20]: 19 to 200 µM | Kd [1, 21]: 74 ± 14 µM | Kd [1, 22]: 230 ± 30 µM | Kd [1, 24]: 27 ± 16 µM | Kd [2, 25]: 68 ± 11 µM | Kd [2, 26]: 20 to 280 µM
Molecule: CC(C)[C@H](NC(=O)[C@H](C)NC(=O)[C@H](CO)NC(=O)[C@@H](NC(=O)[C@H](CCC(N)=O)NC(=O)[C@@H](N)Cc1c[nH]c2ccccc12)C(C)C)C(=O)O [WQVSAV] (H-WQVSAV-OH)
